Read-outs that look alike come from different tables or passages of the source.
Key:
[1] = molecular target: T1, KDM5B (Homo sapiens, UniProt Q9UGL1); assay: biochemical
T1 construct: Full length of KDM5B and KDM4C protein were purchased from Active Motif; purchased Active Motif 31832
Method: (§1) KDM4C and KDM5B AlphaScreen Assay Material and Method
(§2) Compounds disclosed herein were (and can be) screened using the following assay.
Peptides used in all experiments were purchased from Anaspe. […] Final concentration of KDM5B and KDM4C used in the assay were 0.5 nM and 0.2 nM. Final concentration of peptides for 5B and 4C used in the assay were 3 nM.
(§3) 4 μL of KDM5B or KDM4C protein were added to 384-well OptiPlate by using multiflow, followed by 4 μl of either buffer or compound. Plates were sealed, spun down and incubated at RT for 15 min. 4 μl of biotinylated peptide was added to the plate, the plate was incubated at room temperature for 25 minutes (KDM5B) and 30 minutes (KDM4C) after sealed and spun down. Streptavidin donor beads and acceptor beads were diluted and mixed in the detection buffer with 7.5 mM EDTA, followed by adding 8 μl of acceptor and donor beads mix to the plate, before the plate was sealed and incubated at room temperature for 3 h or overnight at dark. The plate was read on Envision plate reader (PerkinElmer) using Alphascreen protocol. IC50s were calculated in GraphPad Prism 6.

[2] = molecular target: T2, KDM4C (Homo sapiens, UniProt Q9H3R0); assay: KDM4C AlphaScreen assay; type: biochemical; conditions: AlphaScreen; full length KDM4C 0.2 nM; biotinylated H3K9Me3 peptide 3 nM; 30 minutes at room temperature
T2 construct: Full length of KDM5B and KDM4C protein were purchased from Active Motif; purchased Active Motif 31858
T2 sequence (Q9H3R0 1-1056): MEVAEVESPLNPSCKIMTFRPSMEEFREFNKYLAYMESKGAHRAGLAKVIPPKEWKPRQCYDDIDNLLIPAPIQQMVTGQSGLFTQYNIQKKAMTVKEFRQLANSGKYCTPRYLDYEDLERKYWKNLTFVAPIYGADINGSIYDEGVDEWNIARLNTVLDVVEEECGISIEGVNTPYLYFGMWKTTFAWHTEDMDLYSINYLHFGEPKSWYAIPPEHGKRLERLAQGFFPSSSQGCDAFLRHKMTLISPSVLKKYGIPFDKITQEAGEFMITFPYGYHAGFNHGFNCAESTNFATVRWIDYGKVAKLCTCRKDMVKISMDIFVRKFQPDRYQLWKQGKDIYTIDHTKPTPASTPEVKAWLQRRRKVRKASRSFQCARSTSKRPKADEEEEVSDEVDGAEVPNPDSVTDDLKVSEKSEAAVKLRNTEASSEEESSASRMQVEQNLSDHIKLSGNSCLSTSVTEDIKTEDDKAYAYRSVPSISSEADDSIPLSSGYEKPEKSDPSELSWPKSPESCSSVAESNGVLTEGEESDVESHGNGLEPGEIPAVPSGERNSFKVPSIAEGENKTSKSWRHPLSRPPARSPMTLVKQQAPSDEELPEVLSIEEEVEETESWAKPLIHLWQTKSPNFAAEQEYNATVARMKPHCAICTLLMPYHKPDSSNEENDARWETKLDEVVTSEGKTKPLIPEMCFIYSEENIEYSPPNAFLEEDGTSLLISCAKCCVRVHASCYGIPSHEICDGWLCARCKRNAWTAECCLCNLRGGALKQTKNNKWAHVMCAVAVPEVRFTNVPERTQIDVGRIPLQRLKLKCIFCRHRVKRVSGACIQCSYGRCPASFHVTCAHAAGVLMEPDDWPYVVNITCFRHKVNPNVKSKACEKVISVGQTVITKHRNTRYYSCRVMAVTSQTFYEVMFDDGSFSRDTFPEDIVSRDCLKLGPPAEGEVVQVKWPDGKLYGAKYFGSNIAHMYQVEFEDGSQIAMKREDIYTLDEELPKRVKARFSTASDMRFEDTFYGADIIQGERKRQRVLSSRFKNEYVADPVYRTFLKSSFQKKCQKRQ
Method: as §1, §2
Peptides used in all experiments were purchased from Anaspe. Full length of KDM5B and KDM4C protein were purchased from Active Motif: KDM5B (cat#31832) and KDM4C (Cat #31858). Final concentration of KDM5B and KDM4C used in the assay were 0.5 nM and 0.2 nM. Final concentration of peptides for 5B and 4C used in the assay were 3 nM.
as §3, with “AlphaScreen assays was conducted as following protocol: buffer used to make compound plate or DMSO is composed of 50 mM HEPES pH 7.4, 0.003% Tween-20; buffer used to dilute enzyme is composed of 50 mM HEPES pH 7.4, 0.003% Tween-20, 0.01% BSA, 500 μM TCEP; and buffer used to dilute the substrate is composed of 50 mM HEPES pH 7.4, 0.003% Tween-20, (NH4)2Fe(SO4)2 15 μM, alpha-ketoglutaric acid 4 μM and L-ascorbic acid 100 μM. 4 μL” for “4 μL”

[3] = AlphaScreen, full length KDM5B 0.5 nM, biotinylated H3K4Me3 peptide 3 nM, 25 minutes at room temperature, read-out: KDM5B (IC50)

T1 sequence (Q9UGL1 whole entry): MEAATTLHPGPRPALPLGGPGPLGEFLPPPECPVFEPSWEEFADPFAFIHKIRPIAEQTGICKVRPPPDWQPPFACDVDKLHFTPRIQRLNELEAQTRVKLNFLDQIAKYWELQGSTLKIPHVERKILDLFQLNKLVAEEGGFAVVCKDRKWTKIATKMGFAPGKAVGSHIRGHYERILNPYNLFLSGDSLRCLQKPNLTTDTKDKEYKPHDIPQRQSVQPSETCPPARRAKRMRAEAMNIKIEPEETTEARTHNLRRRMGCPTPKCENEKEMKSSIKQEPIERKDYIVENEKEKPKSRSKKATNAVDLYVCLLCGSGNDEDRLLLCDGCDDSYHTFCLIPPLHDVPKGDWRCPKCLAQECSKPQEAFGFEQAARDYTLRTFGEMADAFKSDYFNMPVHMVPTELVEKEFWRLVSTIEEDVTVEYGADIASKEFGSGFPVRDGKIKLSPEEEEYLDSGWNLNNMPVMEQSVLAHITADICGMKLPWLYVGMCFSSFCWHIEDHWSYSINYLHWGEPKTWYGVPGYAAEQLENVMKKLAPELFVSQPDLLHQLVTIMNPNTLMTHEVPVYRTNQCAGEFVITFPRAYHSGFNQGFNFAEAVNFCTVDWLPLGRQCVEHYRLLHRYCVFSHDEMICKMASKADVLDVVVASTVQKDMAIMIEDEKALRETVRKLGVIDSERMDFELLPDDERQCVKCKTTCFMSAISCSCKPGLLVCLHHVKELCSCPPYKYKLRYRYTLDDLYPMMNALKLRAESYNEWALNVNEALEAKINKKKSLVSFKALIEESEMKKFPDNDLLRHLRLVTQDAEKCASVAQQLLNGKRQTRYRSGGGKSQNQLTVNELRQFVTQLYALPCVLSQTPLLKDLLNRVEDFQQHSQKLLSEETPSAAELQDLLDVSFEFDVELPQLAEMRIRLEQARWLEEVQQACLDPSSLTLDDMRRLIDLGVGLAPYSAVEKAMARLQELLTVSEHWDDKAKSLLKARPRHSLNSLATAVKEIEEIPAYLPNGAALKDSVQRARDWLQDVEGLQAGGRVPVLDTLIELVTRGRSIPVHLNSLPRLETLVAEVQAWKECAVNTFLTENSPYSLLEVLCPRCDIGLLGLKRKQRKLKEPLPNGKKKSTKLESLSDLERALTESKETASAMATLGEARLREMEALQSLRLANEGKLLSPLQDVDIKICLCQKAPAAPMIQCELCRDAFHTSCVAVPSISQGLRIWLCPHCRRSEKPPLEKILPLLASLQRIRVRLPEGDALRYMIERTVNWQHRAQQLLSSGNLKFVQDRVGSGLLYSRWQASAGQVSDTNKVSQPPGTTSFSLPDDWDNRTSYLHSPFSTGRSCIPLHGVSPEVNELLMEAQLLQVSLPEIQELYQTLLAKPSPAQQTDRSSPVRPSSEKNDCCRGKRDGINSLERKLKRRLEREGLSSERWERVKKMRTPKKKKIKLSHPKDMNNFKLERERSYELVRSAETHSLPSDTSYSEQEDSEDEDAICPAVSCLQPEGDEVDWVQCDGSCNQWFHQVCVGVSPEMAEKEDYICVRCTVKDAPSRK

Structure (SMILES) | IC50 [1] [nM] | IC50 [2] [nM] | IC50 [1, 3] [nM]
CC(C)c1c(O)nc(-n2ccnc2)nc1OCCc1ccncc1 [Example 129, 2-(1H-Imidazol-1-yl)-5-(propan-2-yl)-6-[2-(pyridin-4-yl)ethoxy]pyrimidin-4-ol] | 27 | 1120 | 
COc1nc(-n2ccnc2)nc(O)c1C(C)C [Example 12, 2-(1H-Imidazol-1-yl)-5-isopropyl-6-methoxypyrimidin-4-ol] | 107 | 1460 | 
CC(C)c1c(O)nc(-n2ccnc2)nc1-c1cnn(CC(=O)NCCCCN(C)C)c1 [Example 93, N-[4-(Dimethylamino)butyl]-2-{4-[6-hydroxy-2-(1H-imidazol-1-yl)-5-(propan-2-yl)pyrimidin-4-yl]-1H-pyrazol-1-yl}acetamide] | 6 | 477 | 
CC(C)c1c(O)nc(-n2ccnc2)nc1Oc1cccnc1 [Example 28a, 2-(1H-Imidazol-1-yl)-5-isopropyl-6-(pyridin-3-yloxy)pyrimidin-4-ol] | 32 | 1750 | 
CC(C)c1c(O)nc(-n2ccnc2)nc1-c1cccnc1 [Example 70, 2-(1H-Imidazol-1-yl)-5-(propan-2-yl)-6-(pyridin-3-yl)pyrimidin-4-ol] | 22 | 2660 | 
CC(C)c1c(O)nc(-n2ccnc2)nc1OCCN1CCN(C)CC1 [Example 122, 2-(1H-Imidazol-1-yl)-6-[2-(4-methylpiperazin-1-yl)ethoxy]-5-(propan-2-yl)pyrimidin-4-ol] |  | 1270 | 7
CC(C)c1c(O)nc(-n2ccnc2-c2ccccn2)nc1-c1cnn(C(C)C)c1 [Example 3, 5-(Propan-2-yl)-6-[1-(propan-2-yl)-1H-pyrazol-4-yl]-2-[2-(pyridin-2-yl)-1H-imidazol-1-yl]pyrimidin-4-ol] | 372 | 9680 | 
CC(C)c1c(O)nc(-n2ccnc2)nc1-c1ccc(C(=O)NCCN(C)C)nc1 [Example 8, N-(2-(dimethylamino)ethyl)-5-(6-hydroxy-2-(1H-imidazol-1-yl)-5-isopropylpyrimidin-4-yl)-picolinamide] | 8 | 752 | 
Cc1cn(-c2nc(O)c(C(C)C)c(OCc3cccnc3)n2)cn1 [Example 151, 2-(4-Methyl-1H-imidazol-1-yl)-5-(propan-2-yl)-6-(pyridin-3-ylmethoxy)-pyrimidin-4-ol] |  | 8780 | 583
CC(C)c1c(O)nc(-n2ccnc2)nc1OCc1cccnc1 [Example 29, 2-(1H-Imidazol-1-yl)-5-isopropyl-6-(pyridin-3-ylmethoxy)pyrimidin-4-ol] | 9 | 502 | 
CC(C)c1c(O)nc(-n2ccnc2)nc1-c1cnn(CC(=O)NCCCN(C)C)c1 [Example 90, N-[3-(Dimethylamino)-propyl]-2-{4-[6-hydroxy-2-(1H-imidazol-1-yl)-5-(propan-2-yl)pyrimidin-4-yl]-1H-pyrazol-1-yl}acetamide] |  | 410 | 4
CC(C)c1c(O)nc(-n2ccnc2)nc1-c1cnn(Cc2cccnc2)c1 [Example 45, 2-(1H-Imidazol-1-yl)-5-(propan-2-yl)-6-[1-(pyridin-3-ylmethyl)-1H-pyrazol-4-yl]-pyrimidin-4-ol] |  | 1140 | 10
CC(C)c1c(O)nc(-n2ccnc2)nc1-c1cnn(C2CCCC2)c1 [Example 67, 6-(1-Cyclopentyl-1H-pyrazol-4-yl)-2-(1H-imidazol-1-yl)-5-(propan-2-yl)pyrimidin-4-ol] | 19 | 1340 | 
COC(=O)COc1nc(-n2ccnc2)nc(O)c1C(C)C [Example 133, Methyl 2-{[6-hydroxy-2-(1H-imidazol-1-yl)-5-(propan-2-yl)pyrimidin-4-yl]oxy}acetate] | 30 | 1330 | 
CC(C)c1c(O)nc(-n2ccnc2)nc1-c1cccc(C(=O)N2CCOCC2)c1 [Example 82, 2-(1H-Imidazol-1-yl)-6-[3-(morpholine-4-carbonyl)-phenyl]-5-(propan-2-yl)-pyrimidin-4-ol] | 73 | 7970 | 
